According to US20090054428A1, “NOVEL PYRIMIDINE DERIVATIVES 965” (ASTRAZENECA AB, priority 2007, published 2009):
Where two headings read alike, the source gives them in different places.

Columns and labels:
[1] = target: T1, recombinant EphB4 (Homo sapiens, UniProt P54760); assay: biochemical
T1 sequence (P54760 563-987): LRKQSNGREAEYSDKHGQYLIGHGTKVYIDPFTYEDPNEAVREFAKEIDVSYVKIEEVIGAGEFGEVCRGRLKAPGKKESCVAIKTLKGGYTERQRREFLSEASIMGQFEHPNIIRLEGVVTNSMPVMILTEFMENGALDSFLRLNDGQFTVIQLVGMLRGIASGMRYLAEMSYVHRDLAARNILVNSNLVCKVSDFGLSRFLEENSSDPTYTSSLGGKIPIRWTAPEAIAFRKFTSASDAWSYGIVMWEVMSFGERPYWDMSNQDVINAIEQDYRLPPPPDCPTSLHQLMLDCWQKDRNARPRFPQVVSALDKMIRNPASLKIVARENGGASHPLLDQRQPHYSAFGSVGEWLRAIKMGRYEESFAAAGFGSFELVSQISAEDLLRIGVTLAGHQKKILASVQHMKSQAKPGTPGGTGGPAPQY
From the text: (§1) This assay detects inhibitors of EphB4-mediated phosphorylation of a polypeptide substrate using Alphascreen™ luminescence detection technology. […] The reaction was stopped by addition of EDTA, together with streptavidin-coated donor beads which bind the biotin-substrate containing any phosphorylated tyrosine residues. Anti-phosphotyrosine antibodies present on acceptor beads bind to phosphorylated substrate, thus bringing the donor & acceptor beads into close proximity. Subsequent excitation of the donor beads at 680 nm generated singlet oxygen species that interact with a chemiluminescer on the acceptor beads, leading to light emission at 520-620 nm. The signal intensity is directly proportional to the level of substrate phosphorylation and thus inhibition is measured by a decrease in signal.
(§2) To ensure that each well contained a total of 120 nl DMSO the wells were all backfilled as required. […] The test range of compounds was 100× the required final concentration.
(§3) Assay plates were then incubated at room temperature for 1 hour.
(§4) For assays using compounds prepared via acoustic dispensing, the assay mix was adjusted such that the final assay volume of 12 ul contained the same concentration of reagent as 10 ul of assay mix used when aqueous compounds were tested.
(§5) The plates were sealed under natural lighting conditions, wrapped in aluminium foil and incubated in the dark for a further 20 hours.
(§6) The resulting assay signal was determined on the Perkin Elmer EnVision plate reader. The minimum value was subtracted from all values, and the signal plotted against compound concentration to generate IC50 data. The method used to generate the compound dilutions was recorded with the IC50 value in the database.

[2] = target: T2, EphB4 (Homo sapiens, UniProt P54760); assay: In vitro EphB4 cell assay (EphB4 phosphorylation ELISA in EphB4-CHO cells); format: cell-based
T2 construct: to generate full-length EphB4 containing a Myc-His tag at the C-terminus; expressed in transfected cells
T2 sequence (P54760 16-987): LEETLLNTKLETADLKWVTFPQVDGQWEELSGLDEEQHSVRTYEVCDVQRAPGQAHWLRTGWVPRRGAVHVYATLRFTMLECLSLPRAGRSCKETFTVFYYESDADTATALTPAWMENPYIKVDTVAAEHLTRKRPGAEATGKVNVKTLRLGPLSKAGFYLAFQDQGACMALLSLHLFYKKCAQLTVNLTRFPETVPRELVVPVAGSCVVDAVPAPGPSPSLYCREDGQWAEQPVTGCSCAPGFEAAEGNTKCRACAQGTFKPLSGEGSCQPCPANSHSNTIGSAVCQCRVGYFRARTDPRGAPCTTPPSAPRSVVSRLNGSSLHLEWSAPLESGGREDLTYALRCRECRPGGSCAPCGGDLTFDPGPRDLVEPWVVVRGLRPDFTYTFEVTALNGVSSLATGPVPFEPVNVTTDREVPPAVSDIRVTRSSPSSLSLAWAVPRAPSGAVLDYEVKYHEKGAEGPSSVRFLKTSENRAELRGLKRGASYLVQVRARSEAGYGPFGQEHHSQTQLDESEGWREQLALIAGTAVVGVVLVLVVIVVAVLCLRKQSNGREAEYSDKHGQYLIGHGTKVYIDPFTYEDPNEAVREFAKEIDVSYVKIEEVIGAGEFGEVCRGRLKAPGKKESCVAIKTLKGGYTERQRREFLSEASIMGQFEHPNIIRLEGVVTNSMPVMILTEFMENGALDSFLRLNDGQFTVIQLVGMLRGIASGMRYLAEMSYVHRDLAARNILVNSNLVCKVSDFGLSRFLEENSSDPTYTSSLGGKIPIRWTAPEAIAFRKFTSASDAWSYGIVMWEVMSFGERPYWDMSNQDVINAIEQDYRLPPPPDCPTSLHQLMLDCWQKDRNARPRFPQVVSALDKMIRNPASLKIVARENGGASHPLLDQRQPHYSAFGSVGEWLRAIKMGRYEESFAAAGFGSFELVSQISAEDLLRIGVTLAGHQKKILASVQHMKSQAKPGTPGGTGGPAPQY
Experimental: The assay identifies inhibitors of cellular EphB4 by measuring a decrease in phosphorylation of EphB4 following treatment of cells with compound. The endpoint assay used a sandwich ELISA to detect EphB4 phosphorylation status. Briefly, Myc-tagged EphB4 from treated cell lysate was captured on the ELISA plate via an anti-c-Myc antibody. The phosphorylation status of captured EphB4 was then measured using a generic phosphotyrosine antibody conjugated to HRP via a colourimetric output catalysed by HRP, with level of EphB4 phosphorylation directly proportional to the colour intensity. Absorbance was measured spectrophotometrically at 450 nm.
Full length human EphB4 (Swiss-Prot Acc. No. P54760) was cloned using standard techniques from cDNA prepared from HUVEC using RT-PCR. The cDNA fragment was then sub-cloned into a pcDNA3.1 expression vector containing a Myc-His epitope tag to generate full-length EphB4 containing a Myc-His tag at the C-terminus (Invitrogen Ltd. Paisley, UK). […] CHO-K1 cells were engineered to stably express the EphB4-Myc-His construct using standard stable transfection techniques, to generate cells hereafter termed EphB4-CHO. […]
Plates were washed twice with PBS/0.05% Tween-20 and incubated with 100 μl/well cell lysate overnight at 4° C. […] The absorbances were determined at 450 nm using the Tecan SpectraFluor Plus. […]

[3] = target: T1, recombinant EphB4; settings: read-out: EphB4 enzyme assay Mean IC50 value; Method of compound preparation: Genesis (aqueous compound preparation); * = tested once only
From the text: as §1, §2, §3, §4, §5, §6

[4] = EphB4 enzyme assay Mean IC50 value, Method of compound preparation: Genesis (aqueous compound preparation), * = tested once only
[5] = EphB4 enzyme assay Mean IC50 value, Method of compound preparation: Echo (acoustic dispensing), * = tested once only

Row | Compound | IC50 [1, 4] | IC50 [1, 5] | further results
1 | COc1cc(N(C)c2ccnc(Nc3cc(N4CCOCC4)cc(N4CCOCC4)c3)n2)cnc1Cl [Example 8a, N′-(6-chloro-5-methoxy-pyridin-3-yl)-N-(3,5-dimorpholin-4-ylphenyl)-N′-methyl-pyrimidine-2,4-diamine] | 106 nM |  | 
2 | Cc1ccc(N(C)c2ccnc(Nc3cc(N4CCOCC4)cc(N4CCOCC4)c3)n2)cn1 [Example 7a, N-(3,5-dimorpholin-4-ylphenyl)-N′-methyl-N′-(6-methylpyridin-yl)pyrimidine-2,4-diamine] | 116 nM |  | 
3 | Cc1ccc(N(C)c2ccnc(Nc3cc(N4CCOCC4)cc(N4CCOCC4)c3)n2)nc1 [Example 12, N-[3,5-di(morpholin-4-yl)phenyl]-N′-methyl-N′-(5-methylpyridin-2-yl)pyrimidine-2,4-diamine] | 250 nM | 158 nM | 
4 | COc1cnc(C)c(N(C)c2ccnc(Nc3cc(N4CCOCC4)cc(N4CCOCC4)c3)n2)c1 [Example 7d, N-(3,5-dimorpholin-4-ylphenyl)-N′-(5-methoxy-2-methyl-pyridin-3-yl)-N′-methyl-pyrimidine-2,4-diamine] |  | 4.37 nM | 
5 | CN(c1cncc(Cl)c1)c1ccnc(Nc2cc(N3CCOCC3)cc(N3CCOCC3)c2)n1 [Example 3, N′-(5-chloropyridin-3-yl)-N-(3,5-dimorpholin-4-ylphenyl)-N′-methyl-pyrimidine-2,4-diamine] | 49 nM | 11.6 nM | 
6 | Cc1cccc(N(C)c2ccnc(Nc3cc(N4CCOCC4)cc(N4CCOCC4)c3)n2)n1 [Example 11, N-[3,5-di(morpholin-4-yl)phenyl]-N′-methyl-N′-(6-methylpyridin-2-yl)pyrimidine-2,4-diamine] | > 14400 nM | 207 nM | 
7 | CN(c1ccc(Cl)nc1)c1ccnc(Nc2cc(N3CCOCC3)cc(N3CCOCC3)c2)n1 [Example 6, N4-(6-chloropyridin-3-yl)-N2-(3,5-dimorpholinophenyl)-N4-methylpyrimidine-2,4-diamine] | 201 nM |  | 
8 | CN(c1cc(Cl)ccn1)c1ccnc(Nc2cc(N3CCOCC3)cc(N3CCOCC3)c2)n1 [Example 2a, N′-(4-chloropyridin-2-yl)-N-(3,5-dimorpholin-4-ylphenyl)-N′-methyl-pyrimidine-2,4-diamine] |  |  | IC50 [2]: 197 nM; IC50 ([1]; IC50 in assay A, method of compound preparation not stated): 405 nM
9 | Cc1cc(N(C)c2ccnc(Nc3cc(N4CCOCC4)cc(N4CCOCC4)c3)n2)cnc1Cl [Example 8b, N′-(6-chloro-5-methyl-pyridin-3-yl)-N-(3,5-dimorpholin-4-ylphenyl)-N′-methyl-pyrimidine-2,4-diamine] | 166 nM |  | 
10 | CN(c1cccc(Cl)n1)c1ccnc(Nc2cc(N3CCOCC3)cc(N3CCOCC3)c2)n1 [Example 4, N′-(6-chloropyridin-2-yl)-N-(3,5-dimorpholin-4-ylphenyl)-N′-methyl-pyrimidine-2,4-diamine] | 611 nM |  | 
11 | N′-(4-chloropyridin-4-yl)-N-(3,5-dimorpholin-4-ylphenyl)-N′-methyl-pyrimidine-2,4-diamine [Example 2b] |  |  | IC50 [3]: 207 nM
12 | Cc1ccc(CO)nc1N(C)c1ccnc(Nc2cc(N3CCOCC3)cc(N3CCOCC3)c2)n1 [Example 10, (6-((2-(3,5-dimorpholinophenylamino)pyrimidin-4-yl)(methyl)amino)-5-methylpyridin-2-yl)methanol] |  | 141 nM | 
13 | Cc1ncc(CO)cc1N(C)c1ccnc(Nc2cc(N3CCOCC3)cc(N3CCOCC3)c2)n1 [Example 13, [5-[[2-[[3,5-di(morpholin-4-yl)phenyl]amino]pyrimidin-4-yl]-methylamino]-6-methylpyridin-3-yl]methanol] |  | 66.9 nM | 
14 | COc1cnc(Cl)c(N(C)c2ccnc(Nc3cc(N4CCOCC4)cc(N4CCOCC4)c3)n2)c1 [Example 9, N′-(2-chloro-5-methoxy-pyridin-3-yl)-N-(3,5-dimorpholin-4-ylphenyl)-N′-methyl-pyrimidine-2,4-diamine] |  | 10.7 nM | 
15 | Cc1cnc(C)c(N(C)c2ccnc(Nc3cc(N4CCOCC4)cc(N4CCOCC4)c3)n2)c1 [Example 7c, N′-(2,5-dimethylpyridin-3-yl)-N-(3,5-dimorpholin-4-ylphenyl)-N′-methyl-pyrimidine-2,4-diamine] | 384 nM |  | 
